Measured values as given in US10485237B2, “Use of a chemical agent for thinning of stone fruit” (FINE AGROCHEMICALS LIMITED, priority 2014, dated 2019).
“Also recorded” adds a separate entry of the source.

What was measured:
peach and nectarine [1] = assay: 2010-11 thinning trial in Italy; assay type: in vivo; details: 1 L/100 L ca. 3 months after full bloom, GA7 95% pure relative to GA4
Protocol: (§1) Trials were carried out in Italy and Spain with GA7. The trees were treated with GA7 about 3 months after full bloom in order to reduce flowering the year thereafter.

stone fruit [2] = assay: Reliability of fruit thinning by spraying on fruit trees; assay type: in vivo; details: sprayed on fruit trees
Text: GA7 may be used in admixture with GA4, but the relative amounts of GA7 to GA4 are 70% GA7 or more and 30 GA4 or less. Preferably, the GA7 contains less than 10 wt % of GA4 relative to the GA7, more preferably less than 5 wt %. […] In some years, some thinning is observed, but this effect is not consistently achieved.

peach [3] = assay: Ex 7: 2012 peach return bloom; assay type: in vivo; details: applied at 50 ppm
Text: Once again, shoots were divided in half and blossoms were counted according to proximal and distal halves.

peach and nectarine [4] = assay: 2010-11 thinning trials in Spain (Catalonia, Masso); assay type: in vivo
Protocol: as §1
In Spain, trials were carried out on peach and nectarine with GA7 (>95% pure relative to GA4). The first assessments were done at harvest in 2010. […] The main assessments took place in spring 2011 (i.e. the next year): The reduction of the number of buds per cm was in the order of 35% in the trials carried out in the Catalonia region. In the trials in Masso also, clear reductions of 41-78% were found depending on the variety and the dose. In the meantime, fruit size was increased. Time necessary for hand thinning was recorded in the trials done in Catalonia. The treatment with GA7 allowed a reduction of about 30% of the hand thinning time.

peach [5] = assay: Initial evaluation trial in Piemonte, GA7 on peach fruitlets; assay type: in vivo; details: 750 ml/hl on 10 mm fruitlets of peach
Protocol: An initial test was carried out as an evaluation trial in Piemonte with GA7 applied at 750 ml/hl on 10 mm fruitlets of peach.

apricot variety = details: cited from earlier work
stone fruit [6] = assay: Summary of the thinning tests with GA7; assay type: in vivo; details: compared with fully hand-thinned fruit
Merryl O Henry peach = assay: Timing trial in Spain, fruit numbers; assay type: in vivo
Protocol: (§2) Two trials were carried out in Spain: a timing trial and a dose rate trial. The dose rate trial was done at UFO-4 nectarines. The use of GA7 (>95% pure with respect to the presence of GA4) was applied in amounts between 0.25 and 2 L/hL at 2 months of full bloom on UFO-4 peach.
Further trial was executed on Merryl O Henry peach. The application of GA7 was varied over time, and in one programme GA7 was applied in two doses, 2 weeks apart.

peach and nectarines = assay: Other three 2011-12 trials, number of flowers per branch; assay type: in vivo; details: depending on the trial and the rate
Protocol: as §1
(§3) In 2011, new trials were started: 4 trials in peach and nectarines.

nectarine = assay: 2011-12 trial in nectarine, return bloom (number of flowers on distal and basal part of branches); assay type: in vivo
Protocol: as §1, §3

UFO-4 nectarines [7] = assay: Dose rate trial in Spain, fruit numbers; assay type: in vivo, nectarine
Protocol: as §2

peach [8] = assay: Ex 8: 2011 peach trial (flowers per branch, fruit size and quality); assay type: in vivo
Text: This study consisted of 3 treatments applied on April 25, May 10, and May 26, 2011 (which is 45, 60 and 75 days after full bloom): • 1. Untreated check • 2. FAL 900 at a rate of 25 ppm ai (C) which is 2.5 g per 100 L, which is 0.25 L formulation per 100 L. • 3. FAL 900 at a rate of 50 ppm ai (C) • 4. FAL 900 at a rate of 10 ppm ai (3 treatments with 2 weeks interval) 2011-12 Observations: Evaluations consisted of assessing for firmness, soluble solids, and titratable acidity, and weight of 20 fruit per plot on end of July early August. Shoot measurements were recorded on end of February in […] from ten shoots per plot. The number of flowers per branch were counted from two halves (proximal and distal) of ten branches per plot on end of February 2012.

UFO-4 nectarines [9] = assay: Dose rate trial in Spain, fruit numbers; assay type: in vivo, nectarine; details: 10 g/hL (Falgro tablets), comparative experiment B
peach [10] = assay: Ex 6: 2011 peach return bloom (blossom counts proximal/distal); assay type: in vivo
Text: Shoots were divided in half and blossoms were counted according to proximal, the half closest to the tree trunk, and distal, the half closest to the shoot tip.

[11] = 0.5 L/hL, sprays 1.5 and 2 month after full bloom (two doses)
[12] = 1 L/hL, spray 1.5 month after full bloom
[13] = 1 L/hL, spray 2 month after full bloom
[14] = 1 L/hL, spray 2.5 month after full bloom
[15] = 0.25 L/hL at 2 months of full bloom
[16] = 0.5 L/hL at 2 months of full bloom
[17] = 1.0 L/hL at 2 months of full bloom
[18] = 2.0 L/hL at 2 months of full bloom
[19] = 10 g/hL (Falgro tablets), comparative experiment B

C=C1C[C@]23C[C@H]1CC[C@H]2[C@@]12C=C[C@H](O)[C@@](C)(C(=O)O1)[C@H]2[C@@H]3C(=O)O [GA7, gibberellin 7]
reduction in the number of fruit/meter of branch (peach and nectarine [1]; variety Laura): 1.5%
reduction in the number of fruit/meter of branch (peach and nectarine [1]; variety Sinphony): 32.9%
reliability of fruit thinning results (stone fruit [2]): reliable thinning results
2012 return bloom, bloom counts totaled across the entire fruiting branch (proximal+distal) (peach [3]): significant reduction
fruit size (peach and nectarine [4]; Masso trials, 2011): increased
impact of the treatments on yield and fruit quality (peach and nectarine [4]; assessments at harvest in 2010, GA7 >95% pure relative to GA4): did not show any impact
reductions (trials in Masso) (peach and nectarine [4]; spring 2011, Masso, depending on the variety and the dose): 41-78%
reduction of the number of buds per cm (peach and nectarine [4]; spring 2011, trials in the Catalonia region): ~35%
reduction of the hand thinning time (peach and nectarine [4]; trials done in Catalonia): about 30%
control of flowering in the following year (peach [5]): high control of flowering
budding (peach [5]; especially on young lateral branches): better budding
effect on flowering vs. untreated (apricot variety; 6 experiments): only in 1 out of 6 experiments a non significant reducing effect on flowering; also recorded: in 4 experiments out of 6 shows the opposite effect of increased flowering
quality of the resultant fruit (stone fruit [6]): same quality as fully hand-thinned fruit
Number of fruit/m of long fruiting shoots (>20 cm) (Merryl O Henry peach; [11]): 4.7
Number of fruit/m of short fruiting shoots (<20 cm) (Merryl O Henry peach; [11]): 5.8
Number of fruit/m of total fruiting shoots (Merryl O Henry peach; [11]): 5.6
Total number of fruit per tree (Merryl O Henry peach; [11]): 115
Number of fruit/m of long fruiting shoots (>20 cm) (Merryl O Henry peach; [12]): 8.6
Number of fruit/m of short fruiting shoots (<20 cm) (Merryl O Henry peach; [12]): 5.9
Number of fruit/m of total fruiting shoots (Merryl O Henry peach; [12]): 6.5
Total number of fruit per tree (Merryl O Henry peach; [12]): 149
Number of fruit/m of long fruiting shoots (>20 cm) (Merryl O Henry peach; [13]): 5.1
Number of fruit/m of short fruiting shoots (<20 cm) (Merryl O Henry peach; [13]): 3.6
Number of fruit/m of total fruiting shoots (Merryl O Henry peach; [13]): 3.8
Total number of fruit per tree (Merryl O Henry peach; [13]): 77
Number of fruit/m of long fruiting shoots (>20 cm) (Merryl O Henry peach; [14]): 3.7
Number of fruit/m of short fruiting shoots (<20 cm) (Merryl O Henry peach; [14]): 2.8
Number of fruit/m of total fruiting shoots (Merryl O Henry peach; [14]): 3.0
Total number of fruit per tree (Merryl O Henry peach; [14]): 69
effectiveness for thinning stone fruit (Merryl O Henry peach; applied at varying times): effective for thinning stone fruit
reduction in the number of flowers per branch in comparison to the untreated (peach and nectarines): −17 to −50%
No of flowers (nectarine; basal part, 0.5 L/hL): 8.5
No of flowers, change vs untreated (nectarine; basal part, 0.5 L/hL): −37%
No of flowers (nectarine; basal part, 1 L/hL): 5.4
No of flowers, change vs untreated (nectarine; basal part, 1 L/hL): −60%
return bloom (nectarine; distal and proximal part of the branches, rate effect between 0.5 and 1 L/100 L): return bloom is reduced
No of flowers (nectarine; distal part, 0.5 L/hL): 4.7
No of flowers, change vs untreated (nectarine; distal part, 0.5 L/hL): −58%
No of flowers (nectarine; distal part, 1 L/hL): 3.7
No of flowers, change vs untreated (nectarine; distal part, 1 L/hL): −67%
Number of fruit/m of long fruiting shoots (>20 cm) (UFO-4 nectarines [7]; [15]): 20
Number of fruit/m of short fruiting shoots (<20 cm) (UFO-4 nectarines [7]; [15]): 27
Number of fruit/m of total fruiting shoots (UFO-4 nectarines [7]; [15]): 21
Total number of fruit per tree (UFO-4 nectarines [7]; [15]): 704
Number of fruit/m of long fruiting shoots (>20 cm) (UFO-4 nectarines [7]; [16]): 23
Number of fruit/m of short fruiting shoots (<20 cm) (UFO-4 nectarines [7]; [16]): 28
Number of fruit/m of total fruiting shoots (UFO-4 nectarines [7]; [16]): 24
Total number of fruit per tree (UFO-4 nectarines [7]; [16]): 729
Number of fruit/m of long fruiting shoots (>20 cm) (UFO-4 nectarines [7]; [17]): 17
Number of fruit/m of short fruiting shoots (<20 cm) (UFO-4 nectarines [7]; [17]): 12
Number of fruit/m of total fruiting shoots (UFO-4 nectarines [7]; [17]): 16
Total number of fruit per tree (UFO-4 nectarines [7]; [17]): 491
Number of fruit/m of long fruiting shoots (>20 cm) (UFO-4 nectarines [7]; [18]): 13
Number of fruit/m of short fruiting shoots (<20 cm) (UFO-4 nectarines [7]; [18]): 7
Number of fruit/m of total fruiting shoots (UFO-4 nectarines [7]; [18]): 12
Total number of fruit per tree (UFO-4 nectarines [7]; [18]): 375
thinning effectiveness of GA7 versus GA3 (UFO-4 nectarines [7]; at comparable amounts of GA7 and GA3 (Falgro tablets)): more effective
number of flowers on the lower or proximal half of the branch (A) (peach [8]; 50 ppm ai (C)): significantly lowest
size of peaches collected (peach [8]; 50 ppm ai, tree also producing the largest peaches in 2011): largest peaches
quality of the peaches (peach [8]; firmness, soluble solids, titratable acidity, weight): not influenced

C=C1C[C@]23C[C@@]1(O)CC[C@H]2[C@@]12C=C[C@H](O)[C@@](C)(C(=O)O1)[C@H]2[C@@H]3C(=O)O [GA3, gibberellic acid]
Number of fruit/m of long fruiting shoots (>20 cm) (UFO-4 nectarines [9]): 18
Number of fruit/m of total fruiting shoots (UFO-4 nectarines [9]): 19
blossom counts in comparison to the UTC (peach [10]; both rates, throughout the trial): consistently lower blossom counts
rate response of blossom counts (peach [10]; two evaluation dates): a rate response was observed for the first evaluation date, but not the second
Number of fruit/m of short fruiting shoots (<20 cm) (UFO-4 nectarines [7]; [19]): 29
Total number of fruit per tree (UFO-4 nectarines [7]; [19]): 675

C=C1C[C@]23C[C@H]1CC[C@H]2[C@@]12CC[C@H](O)[C@@](C)(C(=O)O1)[C@H]2[C@@H]3C(=O)O [GA4, reference compound]
effectiveness compared among GA3, GA4 and GA7 (apricot variety; applied in May or June, source and purity unclear): more effective than either GA3 or GA7
